# What was measured:
# Format in all cases: functional, cell-based
# [1] = tested on: MV4-11; test: Cytotoxicity against human MV4-11 cells assessed as cell viability after 48 hrs by MTT assay; settings: Homo sapiens, MV4-11, 48 h
# [2] = tested on: THP-1; test: Cytotoxicity against human THP1 cells assessed as cell viability after 48 hrs by MTT assay; settings: Homo sapiens, THP-1, 48 h
# [3] = Cytotoxicity against human HL60 cells assessed as cell viability after 48 hrs by MTT assay; settings: HL-60, 48 h
# [4] = tested on: MOLM-13; test: Cytotoxicity against human MOLM13 cells assessed as cell viability after 48 hrs by MTT assay; settings: MOLM-13, 48 h
compound,measurement,setting,value
COc1ccc(C(=O)NC(=O)Nc2ccc3c(c2)NC(=O)/C3=C\c2[nH]c(C)c(CC(=O)O)c2C)cc1,IC50,[1],4.2 nM
same,IC50,[2],69 nM
same,IC50,[3],8.1 nM
same,IC50,[4],3.1 nM
COc1ccc(C(=O)NC(=O)Nc2ccc3c(c2)NC(=O)/C3=C\c2[nH]c(C)c(C(=O)NCCN(C)C)c2C)c(F)c1,IC50,[1],8.1 nM
same,IC50,[2],63.7 nM
same,IC50,[3],14.1 nM
same,IC50,[4],5.3 nM
Cc1ccc(C(=O)NC(=O)Nc2ccc3c(c2)NC(=O)/C3=C\c2ccc[nH]2)cc1,IC50,[1],285 nM
same,IC50,[2],356 nM
same,IC50,[3],301 nM
same,IC50,[4],212 nM
CCN(CC)CCNC(=O)c1c(C)[nH]c(/C=C2\C(=O)Nc3cc(NC(=O)NC(=O)c4ccc(OC)cc4F)ccc32)c1C,IC50,[1],17.7 nM
same,IC50,[2],41.2 nM
same,IC50,[3],20.3 nM
same,IC50,[4],12.9 nM
COc1ccc(C(=O)NC(=O)Nc2ccc3c(c2)NC(=O)/C3=C\c2[nH]c(C)c(CCC(=O)N3CCN(C)CC3)c2C)c(F)c1,IC50,[1],11 nM
same,IC50,[2],65 nM
same,IC50,[3],15.7 nM
same,IC50,[4],9.2 nM
O=C(NC(=O)c1ccc(Cl)c(C(F)(F)F)c1)Nc1ccc2c(c1)NC(=O)/C2=C\c1ccc[nH]1,IC50,[1],14.1 nM
same,IC50,[2],68.8 nM
same,IC50,[3],23.2 nM
same,IC50,[4],11.1 nM
CCN(CC)CCNC(=O)c1c(C)[nH]c(/C=C2\C(=O)Nc3ccc(F)cc32)c1C [SUNITINIB],IC50,[1],24.3 nM
same,IC50,[2],45.7 nM
same,IC50,[3],36.8 nM
same,IC50,[4],17.7 nM
O=C(NC(=O)c1ccc(C(F)(F)F)cc1)Nc1ccc2c(c1)NC(=O)/C2=C\c1ccc[nH]1,IC50,[1],191 nM
same,IC50,[2],326 nM
same,IC50,[3],293 nM
same,IC50,[4],196 nM
COc1ccc(C(=O)NC(=O)Nc2ccc3c(c2)NC(=O)/C3=C\c2[nH]c(C)c(CCC(=O)O)c2C)c(F)c1,IC50,[1],6.1 nM
same,IC50,[2],61.3 nM
same,IC50,[3],16.7 nM
same,IC50,[4],4 nM
COc1ccc(C(=O)NC(=O)Nc2cc3c(cc2F)/C(=C/c2[nH]c(C)c(C(=O)O)c2C)C(=O)N3)c(F)c1,IC50,[1],35.9 nM
same,IC50,[2],76.3 nM
same,IC50,[3],28.6 nM
same,IC50,[4],17.8 nM
COc1ccc(C(=O)NC(=O)Nc2cc3c(cc2F)/C(=C/c2[nH]c(C)c(CCC(=O)O)c2C)C(=O)N3)c(F)c1,IC50,[1],6.5 nM
same,IC50,[2],55.9 nM
same,IC50,[3],8.9 nM
same,IC50,[4],2.3 nM
O=C(NC(=O)c1ccccc1F)Nc1ccc2c(c1)NC(=O)/C2=C\c1ccc[nH]1,IC50,[1],234 nM
same,IC50,[2],331 nM
same,IC50,[3],268 nM
same,IC50,[4],232 nM
COc1ccc(C(=O)NC(=O)Nc2ccc3c(c2)NC(=O)/C3=C\c2[nH]c(C)c(C(=O)N3CCOCC3)c2C)c(F)c1,IC50,[1],16.8 nM
same,IC50,[2],102 nM
same,IC50,[3],24 nM
same,IC50,[4],10.8 nM
COc1ccc(C(=O)NC(=O)Nc2ccc3c(c2)NC(=O)/C3=C\c2[nH]c(C)cc2C)cc1,IC50,[1],62.8 nM
same,IC50,[2],116 nM
same,IC50,[3],45.8 nM
same,IC50,[4],42.8 nM
CCN(CCO)CCCOc1ccc2c(Nc3cc(CC(=O)Nc4cccc(F)c4)[nH]n3)ncnc2c1 [DEFOSBARASERTIB],IC50,[1],8.6 nM
same,IC50,[2],25.1 nM
same,IC50,[3],12.7 nM
same,IC50,[4],9.7 nM
COc1ccc(C(=O)NC(=O)Nc2ccc3c(c2)NC(=O)/C3=C\c2[nH]c(C)c(CCC(=O)N3CCOCC3)c2C)c(F)c1,IC50,[1],17.9 nM
same,IC50,[2],70.3 nM
same,IC50,[3],31.2 nM
same,IC50,[4],16.1 nM
COc1ccc(C(=O)NC(=O)Nc2ccc3c(c2)NC(=O)/C3=C\c2[nH]c(C)c(C(=O)N3CCN(C)CC3)c2C)c(F)c1,IC50,[1],10.6 nM
same,IC50,[2],95.1 nM
same,IC50,[3],15.7 nM
same,IC50,[4],6.9 nM
O=C(NC(=O)c1ccc(Cl)c(Cl)c1)Nc1ccc2c(c1)NC(=O)/C2=C\c1ccc[nH]1,IC50,[1],31.6 nM
same,IC50,[2],90.9 nM
same,IC50,[3],35 nM
same,IC50,[4],29 nM
O=C(NC(=O)c1ccc(Cl)cc1)Nc1ccc2c(c1)NC(=O)/C2=C\c1ccc[nH]1,IC50,[1],19.3 nM
same,IC50,[2],81.2 nM
same,IC50,[3],21.6 nM
same,IC50,[4],19.1 nM
CN(C)c1ccc(C(=O)NC(=O)Nc2ccc3c(c2)NC(=O)/C3=C\c2ccc[nH]2)cc1,IC50,[1],261 nM
same,IC50,[2],262 nM
same,IC50,[3],269 nM
same,IC50,[4],260 nM

# — ChEMBL document CHEMBL3351479, “Novel acylureidoindolin-2-one derivatives as dual Aurora B/FLT3 inhibitors for the treatment of acute myeloid leukemia” (Eur J Med Chem, 2014)
